Measurements published in PubChem BioAssay AID1963981 (Molecular Pharmacology Branch, DTP, NCI, 2024).
Blank lines part the entries; values can stand above or below the compound they belong to.

Tested on: 354836-022-R-J1-PDC multicell spheroid viability
Test: Anticancer human tumor 354836-022-R-J1-PDC patient-derived head and neck squamous cell carcinoma cell line growth inhibition [PI3K]
Conditions: for viability, T/C: stronger effect = lower value
Text: Combinatorial screen of targeted agents with the PI3K inhibitors inavolisib, alpelisib, duvelisib, and copanlisib in multi-cell type tumor spheroids
A high-throughput screen of multi-cell type tumor spheroids was designed to identify active combinations of targeted small molecules and PI3K pathway inhibitors. Complex spheroids include a stromal component modeled by human endothelial cells (HUVEC) and fibroblasts modeled by human mesenchymal stem cells (MSCs). The concentration ranges selected for each drug and investigational agent were based upon clinically achievable concentrations if the clinical Cmax of the agent was known.
Compounds. The drugs and investigational agents: inavolisib (NSC800729), alpelisib (NSC765974), duvelisib (NSC772469), copanlisib (NSC816437), ipatasertib (NSC767898), afuresertib (NSC778305), talazoparib (NSC767125), sapanisertib (NSC764658), selumetinib (NSC741078), tovorafenib (DAY101, NSC766906), vemurafenib (NSC761431), ravoxertinib (NSC781343), sotorasib (NSC818433), MRTX1133 (NSC 836407), abemaciclib (NSC 768073), palbociclib (NSC758247), venetoclax (NSC 766270), SY5609 (NSC837396), enzalutamide (NSC755605), and darolutamide (NSC825331), were obtained from the National Cancer Institute (NCI) Developmental Therapeutics Program Chemical Repository. The FDA-approved anticancer drug set is available from the NCI Developmental Therapeutics Program. […] The stock solutions were prepared in dimethyl sulfoxide (DMSO, Sigma-Aldrich, St. Louis, MO, cat. D2650) at 800-fold the tested concentration and stored at -70 degrees C prior to their use. All drugs and investigational agents were tested over a range starting from a high concentration at or near the clinical Cmax and decreasing in half-log increments. If the clinical Cmax for an agent had not been determined, the highest concentration tested was 10 microM.
Cell Culture. All cells were maintained in an incubator at 37 degrees C and 5% CO2 with 95% humidity. The PDC lines were cultured according to standard operating procedures established by the NCI PDMR (https://pdmr.cancer.gov/sops/default.htm). All PDCs were thawed and cultured in Matrigel-coated flasks prepared with a working solution of 1X Ham's F-12 nutrient mix, without supplementation (Invitrogen, Waltham, MA, cat. 11765054), 100 U/mL penicillin-streptomycin (Invitrogen, cat. 15140122), and 2.5% Matrigel (Corning Inc., Corning, NY, cat. 354248) for the first three passages. The 354836-022-R-J1-PDC, 475296-252-R-J1-PDC, and 997726-040-R-J2-PDC lines were cultured in 6A media, which includes advanced DMEM/F-12 (Thermo Fisher Scientific, cat. 12634028), 10 mM HEPES (Thermo Fisher Scientific, cat. 15630080), 1X GlutaMAX supplement (Thermo Fisher Scientific, cat. 35050061), 0.1 mg/mL primocin (InvivoGen, San Diego, CA, cat. ant-pm-2), 10% defined fetal bovine serum, heat inactivated (HyClone Laboratories Inc., Logan, UT, cat. SH30070.03HI), 50% L-WRN conditioned media (ATCC, cat. CRL-3276), 1.25 mM N-Acetyl-L-cysteine (Sigma-Aldrich, cat. A9165), 10 mM nicotinamide (Sigma-Aldrich, cat. N0636), 1X B-27 supplement (Thermo Fisher Scientific, cat. 17504044), 1X N-2 supplement (Thermo Fisher Scientific, cat. 17502048), and 10 microM Y-27632 dihydrochloride (Tocris Bioscience, Bristol, United Kingdom, cat. 1254). The 624824-186-R-J2-PDC line was cultured in 6C/Colon 1B media, which includes all 6A media components plus 50 ng/mL human EGF recombinant protein (Thermo Fisher Scientific, cat. PHG0311). […]

[1] = curve of first compound, second compound 0.0316 µM
[2] = curve of first compound, second compound 0.1 µM
[3] = curve of first compound, second compound 0.316 µM
[4] = curve of first compound, second compound 1 µM
[5] = curve of first compound, second compound 3.16 µM
[6] = curve of first compound, second compound 10 µM
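Note: spheroids exposed to agents for seven days before the viability read.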

IC50 (curve of compound): > 10 µM
SMILES: Cn1nccc1Nc1nccc(-c2ccn(C(CO)c3ccc(Cl)c(F)c3)c(=O)c2)n1 (stereo not drawn)
viability, T/C (compound 0.0316 µM): 107% [middle of 4 runs]
viability, T/C (compound 0.1 µM): 91.8% [middle of 4 runs]
viability, T/C (compound 0.316 µM): 110% [middle of 4 runs]
viability, T/C (compound 1 µM): 94.6% [middle of 4 runs]
viability, T/C (compound 3.16 µM): 106% [middle of 4 runs]
viability, T/C (compound 10 µM): 96.2% [middle of 4 runs]

IC50 [1]: > 10 µM
IC50 [2]: > 10 µM
IC50 [3]: > 10 µM
IC50 [4]: > 10 µM
IC50 [5]: > 10 µM
IC50 [6]: > 10 µM
SMILES: C=CC(=O)N1CCN(c2nc(=O)n(-c3c(C)ccnc3C(C)C)c3nc(-c4c(O)cccc4F)c(F)cc23)C(C)C1 (stereo not drawn) + CC(Nc1ncnc2nc[nH]c12)c1cc2cccc(Cl)c2c(=O)n1-c1ccccc1
viability, T/C (second compound 0.0316 µM, first compound 0.0316 µM): 93.1%
viability, T/C (second compound 0.0316 µM, first compound 0.1 µM): 84.5%
viability, T/C (second compound 0.0316 µM, first compound 0.316 µM): 103%
viability, T/C (second compound 0.0316 µM, first compound 1 µM): 103%
viability, T/C (second compound 0.0316 µM, first compound 3.16 µM): 98.7%
viability, T/C (second compound 0.0316 µM, first compound 10 µM): 94.1%
viability, T/C (second compound 0.1 µM, first compound 0.0316 µM): 98.7%
viability, T/C (second compound 0.1 µM, first compound 0.1 µM): 94.5%
viability, T/C (second compound 0.1 µM, first compound 0.316 µM): 96.4%
viability, T/C (second compound 0.1 µM, first compound 1 µM): 115%
viability, T/C (second compound 0.1 µM, first compound 3.16 µM): 108%
viability, T/C (second compound 0.1 µM, first compound 10 µM): 95.5%
viability, T/C (second compound 0.316 µM, first compound 0.0316 µM): 110%
viability, T/C (second compound 0.316 µM, first compound 0.1 µM): 106%
viability, T/C (second compound 0.316 µM, first compound 0.316 µM): 103%
viability, T/C (second compound 0.316 µM, first compound 1 µM): 116%
viability, T/C (second compound 0.316 µM, first compound 3.16 µM): 106%
viability, T/C (second compound 0.316 µM, first compound 10 µM): 88.1%
viability, T/C (second compound 1 µM, first compound 0.0316 µM): 103%
viability, T/C (second compound 1 µM, first compound 0.1 µM): 98.4%
viability, T/C (second compound 1 µM, first compound 0.316 µM): 108%
viability, T/C (second compound 1 µM, first compound 1 µM): 102%
viability, T/C (second compound 1 µM, first compound 3.16 µM): 98.7%
viability, T/C (second compound 1 µM, first compound 10 µM): 97.7%
viability, T/C (second compound 3.16 µM, first compound 0.0316 µM): 96%
viability, T/C (second compound 3.16 µM, first compound 0.1 µM): 114%
viability, T/C (second compound 3.16 µM, first compound 0.316 µM): 106%
viability, T/C (second compound 3.16 µM, first compound 1 µM): 115%
viability, T/C (second compound 3.16 µM, first compound 3.16 µM): 115%
viability, T/C (second compound 3.16 µM, first compound 10 µM): 93.2%
viability, T/C (second compound 10 µM, first compound 0.0316 µM): 98%
viability, T/C (second compound 10 µM, first compound 0.1 µM): 89.4%
viability, T/C (second compound 10 µM, first compound 0.316 µM): 90.1%
viability, T/C (second compound 10 µM, first compound 1 µM): 99.2%
viability, T/C (second compound 10 µM, first compound 3.16 µM): 102%
viability, T/C (second compound 10 µM, first compound 10 µM): 88.1%

IC50 [1]: > 3 µM
IC50 [2]: > 3 µM
IC50 [3]: > 3 µM
IC50 [4]: > 3 µM
IC50 [5]: 1.1 µM
IC50 [6]: < 0.00949 µM
SMILES: Cn1cnc2c(F)c(Nc3ccc(Br)cc3Cl)c(C(=O)NOCCO)cc21 + Cc1nc(NC(=O)N2CCCC2C(N)=O)sc1-c1ccnc(C(C)(C)C(F)(F)F)c1
viability, T/C (second compound 0.0316 µM, first compound 0.00949 µM): 85.6%
viability, T/C (second compound 0.0316 µM, first compound 0.03 µM): 82.2%
viability, T/C (second compound 0.0316 µM, first compound 0.0949 µM): 90.7%
viability, T/C (second compound 0.0316 µM, first compound 0.3 µM): 64.6%
viability, T/C (second compound 0.0316 µM, first compound 0.949 µM): 73.7%
viability, T/C (second compound 0.0316 µM, first compound 3 µM): 54.3%
viability, T/C (second compound 0.1 µM, first compound 0.00949 µM): 96.5%
viability, T/C (second compound 0.1 µM, first compound 0.03 µM): 83.1%
viability, T/C (second compound 0.1 µM, first compound 0.0949 µM): 82.9%
viability, T/C (second compound 0.1 µM, first compound 0.3 µM): 76.3%
viability, T/C (second compound 0.1 µM, first compound 0.949 µM): 70.4%
viability, T/C (second compound 0.1 µM, first compound 3 µM): 54.4%
viability, T/C (second compound 0.316 µM, first compound 0.00949 µM): 79.3%
viability, T/C (second compound 0.316 µM, first compound 0.03 µM): 86.2%
viability, T/C (second compound 0.316 µM, first compound 0.0949 µM): 80.5%
viability, T/C (second compound 0.316 µM, first compound 0.3 µM): 78.2%
viability, T/C (second compound 0.316 µM, first compound 0.949 µM): 75.6%
viability, T/C (second compound 0.316 µM, first compound 3 µM): 55.7%
viability, T/C (second compound 1 µM, first compound 0.00949 µM): 71.7%
viability, T/C (second compound 1 µM, first compound 0.03 µM): 75.2%
viability, T/C (second compound 1 µM, first compound 0.0949 µM): 78%
viability, T/C (second compound 1 µM, first compound 0.3 µM): 58.6%
viability, T/C (second compound 1 µM, first compound 0.949 µM): 63.3%
viability, T/C (second compound 1 µM, first compound 3 µM): 52%
viability, T/C (second compound 3.16 µM, first compound 0.00949 µM): 49.1%
viability, T/C (second compound 3.16 µM, first compound 0.03 µM): 58.1%
viability, T/C (second compound 3.16 µM, first compound 0.0949 µM): 55.8%
viability, T/C (second compound 3.16 µM, first compound 0.3 µM): 46%
viability, T/C (second compound 3.16 µM, first compound 0.949 µM): 54.8%
viability, T/C (second compound 3.16 µM, first compound 3 µM): 31.7%
viability, T/C (second compound 10 µM, first compound 0.00949 µM): 33%
viability, T/C (second compound 10 µM, first compound 0.03 µM): 29.7%
viability, T/C (second compound 10 µM, first compound 0.0949 µM): 30%
viability, T/C (second compound 10 µM, first compound 0.3 µM): 30.4%
viability, T/C (second compound 10 µM, first compound 0.949 µM): 25%
viability, T/C (second compound 10 µM, first compound 3 µM): 12.6%

IC50 (curve of compound): 319 nM [middle of 4 runs]
SMILES: CC(C)NCC(C(=O)N1CCN(c2ncnc3c2C(C)CC3O)CC1)c1ccc(Cl)cc1 (stereo not drawn)
viability, T/C (compound 0.0316 µM): 96.5% [middle of 4 runs]
viability, T/C (compound 0.1 µM): 71% [middle of 4 runs]
viability, T/C (compound 0.316 µM): 54.1% [middle of 4 runs]
viability, T/C (compound 1 µM): 24.7% [middle of 4 runs]
viability, T/C (compound 3.16 µM): 18% [middle of 4 runs]
viability, T/C (compound 10 µM): 14.2% [middle of 4 runs]
